The values below are quoted from earlier work in EP2706070A1, “Combination treatments involving antibodies to human PCSK9” (SANOFI, priority 2012, dated 2014).

For data set [1] the following is noted: elimination (ezetimibe and its glucuronide: from plasma, after oral administration); cited from earlier work.
For another data set, the system named is LDL-C. The settings on record: ezetimibe 10 mg/day added to maximal dose of statins, genotype-confirmed hoFH; cited from earlier work.

Structures are written as SMILES.

Consider `O=C(O)[C@H]1O[C@@H](Oc2ccc([C@@H]3[C@@H](CC[C@H](O)c4ccc(F)cc4)C(=O)N3c3ccc(F)cc3)cc2)[C@H](O)[C@@H](O)[C@@H]1O` [ezetimibe-glucuronide], for which the half-life entry in data set [1] is “approximately 22 hours”.
`O=C1[C@H](CC[C@H](O)c2ccc(F)cc2)[C@@H](c2ccc(O)cc2)N1c1ccc(F)cc1` [ezetimibe]: the “total reduction of LDL-C levels” value with LDL-C is reported as 27%.
